Results taken from patent US20110070232A1, “Combination Therapy with an Antitumor Alkaloid” (Pharma Mar, S.A., priority 2008, published 2011).
Converted amounts (≈) assume the structure as drawn. Like-named read-outs stand apart in the source and are kept apart here.

Key:
[1] = system: AGS human gastric carcinoma cell line; experiment: IC50 determination, MTS assay, 72 h (Example 1); assay type: cell-based; conditions: 72 hours of drug exposure
Procedure: (§1) The human gastric carcinoma cell lines selected for this assay were the following: Hs746T, HGC-27, and AGS cell lines. Hs746T and AGS cell lines were grown in Dulbecco's modified Eagle's medium (DMEM) supplemented with 10% Fetal Bovine Serum (FBS), 1.5 g/L sodium bicarbonate, 4.5 g/L glucose and 4 mM L-glutamine. HGC-27 cell line was grown in Iscove's modified Dulbecco's medium (IMDM) supplemented with 20% FBS and 2 mM L-glutamine.
(§2) The day before plating, the cells were fed with fresh, complete growth media. On the harvest (plating) day, cells were counted by Trypan Blue exclusion staining method.
(§3) Cells were harvested and seeded in 96 well microtiter plates at 10,000 cells density in 150 μL of media and incubated for 24 hours to allow the cells to attach before drug addition. To collect reference data, the MTS assay was done on untreated cells at time 0 (after incubation of cells for 24 hours).
(§4) The cytotoxic effect was measured by the MTS Assay (Tetrazolium), which is a colorimetric method for determining the number of viable cells. After the incubation period (24 hours for the Day 0 plate and 72 hours for the Test and Control plates), 25 μL of MTS+PMS solution was added to each microtiter well and incubated for 4 hours at 37° C. Plates were then removed from incubator and placed on plate shaker for 5 minutes (covered with aluminum foil for protection from light). Optical densities were read at 490 nm on spectrophotometer plate reader.
(§5) IC50 values were calculated from an average of two to four assays for each of the test agents.

[2] = system: HGC-27 human gastric carcinoma cell line; experiment: IC50 determination, MTS assay, 72 h (Example 1); assay type: cell-based; conditions: 72 hours of drug exposure
Procedure: as §1, §2, §3, §4, §5

[3] = system: Hs746T human gastric carcinoma cell line; experiment: IC50 determination, MTS assay, 72 h (Example 1); assay type: cell-based; conditions: 72 hours of drug exposure
Procedure: as §1, §2, §3, §4, §5

MRI-H-254 tumors = assay type: in vivo, mice
Procedure: Female athymic nude mice (Harlan Sprague Dawley, Madison, Wis.) were utilized for all experiments. Animals were housed in ventilated rack caging with food and water ad libitum. The mice were acclimated for at least 5 days prior to tumor implantation with tumor fragments.
Treatments were initiated on DPI 20.
(§6) Tumor size measurements were recorded twice weekly from the treatment initiation until the termination of the study.
(§7) Mean, standard deviation and standard error of the mean were determined for tumor volume for all animal groups at all assessments. Student's t test was performed on tumor volumes at each measurement day, including at the end of the study, to determine whether there were any statistically significant differences between combination treatment groups and single monotherapy treatment groups.

Hs746T tumors = assay type: in vivo, mice; conditions: for % T/C on day 14 / % T/C on day 19 / % T/C on day 22 / % T/C on day 26 / % T/C on day 29 / % T/C on day 32 / % T/C on day 39: PM00104 0.90 IV, DPI 14, 21, 28
Procedure: Female athymic nude mice (Harlan Sprague Dawley, Madison, Wis.) were utilized for all experiments. Animals were housed in ventilated rack caging with food and water ad libitum. The mice were acclimated for at least 5 days prior to tumor implantation with a tumor cell suspension.
The tumor model used in these studies was Hs746T cell line, which was obtained from the ATCC (Manassas, Va.).
Treatments were initiated on DPI 14.
as §6, §7

[4] = PM00104 0.90 IV, docetaxel 8 IP, oxaliplatin 4 IP mg/kg/day (G4, G6, G8, G10), DPI 20, 27, 34
[5] = PM00104 0.90 IV, docetaxel 16 IP, oxaliplatin 8 IP mg/kg/day (G2, G3, G5, G7, G9), DPI 20, 27, 34
[6] = docetaxel 8 IP, oxaliplatin 4 IP mg/kg/day (G4, G6, G8, G10)
[7] = docetaxel 16 IP, oxaliplatin 8 IP mg/kg/day (G2, G3, G5, G7, G9)

CCc1c2c(nc3ccc(O)cc13)-c1cc3c(c(=O)n1C2)COC(=O)[C@]3(O)CC [SN38, 7-ethyl-10-hydroxycamptothecin]
IC50 [1]: 0.00549 µg/mL (≈ 0.014 µM) | IC50 [2]: 0.246 µg/mL (≈ 0.627 µM) | IC50 [3]: 0.0582 µg/mL (≈ 0.148 µM)

CC(=O)O[C@@]12CO[C@@H]1C[C@H](O)[C@@]1(C)C(=O)[C@H](O)C3=C(C)[C@@H](OC(=O)[C@H](O)[C@@H](NC(=O)OC(C)(C)C)c4ccccc4)C[C@@](O)([C@@H](OC(=O)c4ccccc4)[C@H]21)C3(C)C [Docetaxel, docetaxel]
% T/C on day 20 (MRI-H-254 tumors; [4]): 97.7% | % T/C on day 23 (MRI-H-254 tumors; [4]): 122.8% | % T/C on day 27 (MRI-H-254 tumors; [4]): 93.1% | % T/C on day 30 (MRI-H-254 tumors; [4]): 102.6% | % T/C on day 33 (MRI-H-254 tumors; [4]): 114.1% | % T/C on day 36 (MRI-H-254 tumors; [4]): 119.2% | % T/C on day 40 (MRI-H-254 tumors; [4]): 120.1% | % T/C on day 48 (MRI-H-254 tumors; [4]): 97.3% | % T/C on day 20 (MRI-H-254 tumors; [5]): 101.4% | % T/C on day 23 (MRI-H-254 tumors; [5]): 115.4% | % T/C on day 27 (MRI-H-254 tumors; [5]): 90.9% | % T/C on day 33 (MRI-H-254 tumors; [5]): 115.8% | % T/C on day 36 (MRI-H-254 tumors; [5]): 108.4% | % T/C on day 40 (MRI-H-254 tumors; [5]): 100.4% | % T/C on day 48 (MRI-H-254 tumors; [5]): 76.7% | % Inhibition (MRI-H-254 tumors; day 20, PM00104 0.9 and docetaxel 8 mg/kg/day): 2.3% | % Inhibition (MRI-H-254 tumors; day 20, PM00104 0.9 and docetaxel 16 mg/kg/day): −1.4% | % Inhibition (MRI-H-254 tumors; day 23, PM00104 0.9 and docetaxel 8 mg/kg/day): −22.8% | % Inhibition (MRI-H-254 tumors; day 23, PM00104 0.9 and docetaxel 16 mg/kg/day): −15.4% | % Inhibition (MRI-H-254 tumors; day 27, PM00104 0.9 and docetaxel 8 mg/kg/day): 6.9% | % Inhibition (MRI-H-254 tumors; day 27, PM00104 0.9 and docetaxel 16 mg/kg/day): 9.1% | % Inhibition (MRI-H-254 tumors; day 30, PM00104 0.9 and docetaxel 8 mg/kg/day): −2.6% | % Inhibition (MRI-H-254 tumors; day 30, PM00104 0.9 and docetaxel 16 mg/kg/day): −17.1% | % Inhibition (MRI-H-254 tumors; day 33, PM00104 0.9 and docetaxel 8 mg/kg/day): −14.1% | % Inhibition (MRI-H-254 tumors; day 33, PM00104 0.9 and docetaxel 16 mg/kg/day): −15.8% | % Inhibition (MRI-H-254 tumors; day 36, PM00104 0.9 and docetaxel 8 mg/kg/day): −19.2% | % Inhibition (MRI-H-254 tumors; day 36, PM00104 0.9 and docetaxel 16 mg/kg/day): −8.4% | % Inhibition (MRI-H-254 tumors; day 40, PM00104 0.9 and docetaxel 8 mg/kg/day): −20.1% | % Inhibition (MRI-H-254 tumors; day 40, PM00104 0.9 and docetaxel 16 mg/kg/day): −0.4% | % Inhibition (MRI-H-254 tumors; day 48, PM00104 0.9 and docetaxel 8 mg/kg/day): 2.7% | % Inhibition (MRI-H-254 tumors; day 48, PM00104 0.9 and docetaxel 16 mg/kg/day): 23.3% | IC50 ([1]; Homo sapiens, read-out: IC50): 1.99 µg/mL (≈ 2.46 µM) | IC50 ([2]; Homo sapiens, read-out: IC50): 6.54 µg/mL (≈ 8.1 µM) | IC50 ([3]; Homo sapiens, read-out: IC50): 44.2 µg/mL (≈ 54.7 µM) | % T/C on day 14 (Hs746T tumors; [6]): 100.8% | % T/C on day 19 (Hs746T tumors; [6]): 49.0% | % T/C on day 22 (Hs746T tumors; [6]): 41.6% | % T/C on day 26 (Hs746T tumors; [6]): 32.5% | % T/C on day 29 (Hs746T tumors; [6]): 29.4% | % T/C on day 32 (Hs746T tumors; [6]): 39.4% | % T/C on day 39 (Hs746T tumors; [6]): 55.1% | % T/C on day 14 (Hs746T tumors; [7]): 100.3% | % T/C on day 19 (Hs746T tumors; [7]): 33.6% | % T/C on day 22 (Hs746T tumors; [7]): 21.3% | % T/C on day 26 (Hs746T tumors; [7]): 7.2% | % T/C on day 29 (Hs746T tumors; [7]): 3.5% | % T/C on day 32 (Hs746T tumors; [7]): 1.5% | % T/C on day 39 (Hs746T tumors; [7]): −0.6% | % Inhibition (Hs746T tumors; day 14, PM00104 0.9 and docetaxel 8 mg/kg/day): −0.8% | % Inhibition (Hs746T tumors; day 14, PM00104 0.9 and docetaxel 16 mg/kg/day): −0.3% | % Inhibition (Hs746T tumors; day 19, PM00104 0.9 and docetaxel 8 mg/kg/day): 51.0% | % Inhibition (Hs746T tumors; day 19, PM00104 0.9 and docetaxel 16 mg/kg/day): 66.4% | % Inhibition (Hs746T tumors; day 22, PM00104 0.9 and docetaxel 8 mg/kg/day): 58.4% | % Inhibition (Hs746T tumors; day 22, PM00104 0.9 and docetaxel 16 mg/kg/day): 78.7% | % Inhibition (Hs746T tumors; day 26, PM00104 0.9 and docetaxel 8 mg/kg/day): 67.5% | % Inhibition (Hs746T tumors; day 26, PM00104 0.9 and docetaxel 16 mg/kg/day): 92.8% | % Inhibition (Hs746T tumors; day 29, PM00104 0.9 and docetaxel 8 mg/kg/day): 70.6% | % Inhibition (Hs746T tumors; day 29, PM00104 0.9 and docetaxel 16 mg/kg/day): 96.5% | % Inhibition (Hs746T tumors; day 32, PM00104 0.9 and docetaxel 8 mg/kg/day): 60.6% | % Inhibition (Hs746T tumors; day 32, PM00104 0.9 and docetaxel 16 mg/kg/day): 98.5% | % Inhibition (Hs746T tumors; day 39, PM00104 0.9 and docetaxel 8 mg/kg/day): 44.9% | % Inhibition (Hs746T tumors; day 39, PM00104 0.9 and docetaxel 16 mg/kg/day): 100.6%
